Converted amounts (≈) assume the structure as drawn.
Tests used:
Assay in all cases: In vitro antibacterial activity (MIC), standard agar-dilution test
Type in all cases: cell-based
P. aeruginosa ISM = details: Pseudomonas aeruginosa, inoculum about 10⁴ CFU/ml, 18-24 h at 37°C
[1] = test system: P. vulgaris X19H ATCC 881; details: Proteus vulgaris, ATCC881, inoculum about 10⁴ CFU/ml, 18-24 h at 37°C
S. aureus Tour = details: Staphylococcus aureus, inoculum about 10⁴ CFU/ml, 18-24 h at 37°C
Procedure: (§1) Isosensitest broth (Oxoid) and Todd-Hewitt broth (Difco) are used for growing staphylococci and streptococci, respectively. Broth cultures are diluted so that the final inoculum is about 10⁴ colony forming units/ml (CFU/ml).

S. pyogenes C203 = details: Streptococcus pyogenes, inoculum about 10⁴ CFU/ml, 18-24 h at 37°C
Procedure: as §1

S. faecalis ATCC 7080 = details: Enterococcus faecalis, ATCC7080, inoculum about 10⁴ CFU/ml, 18-24 h at 37°C
Procedure: as §1

S. pneumoniae UC41 = details: Streptococcus pneumoniae, inoculum about 10⁴ CFU/ml, 18-24 h at 37°C
Procedure: as §1

[2] = test system: S. epidermidis ATCC 12228; details: Staphylococcus epidermidis, ATCC12228, inoculum about 10⁴ CFU/ml, 18-24 h at 37°C
Procedure: as §1

E. coli SKF 12140 = details: Escherichia coli, SKF12140, inoculum about 10⁴ CFU/ml, 18-24 h at 37°C
S. haemolyticus L 602 = details: Staphylococcus haemolyticus, L602, inoculum about 10⁴ CFU/ml, 18-24 h at 37°C
Procedure: as §1

[3] = S. aureus Tour + 30% bovine serum

Row | Compound | MIC (P. aeruginosa ISM) | MIC [1] | MIC (S. aureus Tour; [3]) | MIC (S. aureus Tour; S. aureus Tour) | MIC (S. pyogenes C203) | MIC (S. faecalis ATCC 7080) | MIC (S. pneumoniae UC41) | MIC [2] | MIC (E. coli SKF 12140) | MIC (S. haemolyticus L 602)
1 | O=C1NC2C(=O)NC3C(=O)NC4C(=O)NC(C(=O)NC(C(=O)O)c5cc(O)cc(O)c5-c5cc4ccc5O)C(O)c4ccc(c(Cl)c4)Oc4cc3cc(c4O)Oc3ccc(cc3Cl)CC1NC(=O)C(NC1CCCC1)c1ccc(O)c(c1)Oc1cc(O)cc2c1 (stereo not shown) [Compound 11] | > 128 µg/mL | > 128 µg/mL | 0.5 µg/mL | 0.06 µg/mL (≈ 0.0474 µM) | 0.12 µg/mL (≈ 0.0947 µM) | 0.25 µg/mL (≈ 0.197 µM) | 0.06 µg/mL (≈ 0.0474 µM) | 0.03 µg/mL (≈ 0.0237 µM) | > 128 µg/mL | –
2 | CCNC1C(=O)NC2Cc3ccc(c(Cl)c3)Oc3cc4cc(c3O)Oc3ccc(cc3Cl)C(O)C3NC(=O)C(NC(=O)C4NC(=O)C(NC2=O)c2cc(O)cc(c2)Oc2cc1ccc2O)c1ccc(O)c(c1)-c1c(O)cc(O)cc1C(C(=O)O)NC3=O (stereo not shown) [Compound 9] | > 128 µg/mL | > 128 µg/mL | 0.25 µg/mL | 0.06 µg/mL (≈ 0.0489 µM) | 0.06 µg/mL (≈ 0.0489 µM) | 0.12 µg/mL (≈ 0.0978 µM) | 0.12 µg/mL (≈ 0.0978 µM) | 0.03 µg/mL (≈ 0.0245 µM) | > 128 µg/mL | 0.25 µg/mL (≈ 0.204 µM)

From patent EP0351685A2, “Process for preparing n15-alkyl derivatives of teicoplanin compounds” (GRUPPO LEPETIT S.p.A., priority 1988, dated 1990)
